# Reference: paper PMC2289708 (The Journal of Cell Biology, 1992)
# What was measured:
# F-actin in human PMNs = experiment: F-actin level in PMNs, rhodamine phalloidin binding; format: cell-based
# [1] = format: in vitro ADME, human; details: lysed on ice for 5 min before addition of PCA, relative to samples receiving PCA <30 s after lysis; HPLC; not shown
# muscle G-actin [2] = experiment: TB4 binding to muscle G-actin from rates of pyrenyl actin elongation; set-up: species or system rabbit
# [3] = test system: platelet actin (cell actin); details: ref Weber et al., 1992, cited from earlier work
# [4] = ref Safer et al., 1990; cited from earlier work
# G-actin = experiment: Non-denaturing PAGE and immunoblot of PMN supernatants for G-actin/TB4 complex; format: binding, human
# muscle G-actin [5] = details: cited from earlier work
# [6] = test system: G-actin/TB4 complex in human PMNs; experiment: Change in G-actin/TB4 complex band after stimulation of PMNs; format: cell-based; details: 10^-7 M FNLLP, 30 s
# pyrenyl G-actin = pyrenyl G-actin (Oryctolagus cuniculus, UniProt P68135); format: biochemical, rabbit
compound,measurement,setting,value
C=C1[C@@H](C)[C@H]2[C@H](Cc3ccccc3)NC(=O)[C@]23OC(=O)/C=C/[C@H](O)CCC[C@@H](C)C/C=C/[C@H]3[C@@H]1O [cytochalasin B],effect on chemoattractant induced increase in F-actin,"F-actin in human PMNs; cytochalasin B with FNLLP, 2 μM in Fig. 3a",blocks the chemoattractant induced in- crease in F-actin
Thymosin beta 4 [TB4],TB4 remaining in cell lysate,[1],95%
same,kinetics of bovine spleen T beta 4 binding to muscle pyrenyl G-actin,muscle G-actin [2],sufficiently rapid to accommodate the rapid changes in actin polymerization and depolymerization observed in vivo
same,effect of preincubation with TB4 on polymerization rate,"muscle G-actin [2]; 2 μM pyrenyl G-actin with 5 μM TB4, F-actin nuclei",slower rate of polymerization
same,time for slope to shift to that of preincubated samples,"muscle G-actin [2]; 5 μM TB4 added after polymerization started, mixing interval, all n = 7 samples",≤ 6 s
same,"kon (rate constant of binding), minimal","muscle G-actin [2]; bovine spleen TB4 5 μM, 2 μM pyrenyl muscle G-actin, Equation 1, SD 0.003, n = 7",> 45000 M⁻¹ s⁻¹
same,"koff, minimal","muscle G-actin [2]; from Kd and minimal kon, muscle actin",greater than 0.09 s-1
same,Kd,[3]; read-out: Kd for platelet / cell actin,0.6 µM
same,affinity for nonmuscle vs muscle actin,[3],approximately threefold higher
same,activity after boiling,[4],remains active after boiling
same,PMN band antibody reactivity (actin and TB4),G-actin; immunoblot of band with mobility similar to actin/TB4 complex,reacts positively with antibodies to both actin
same,fraction of G-actin migrating like G-actin/T beta 4 complex,"G-actin; supernatants from resting PMNs, 7.5% non-denaturing gels",a large fraction of G-actin in supernatants prepared from resting PMNs has a mobility similar to the G- actin/T beta 4 complex
same,Kd,"muscle G-actin [5]; read-out: Kd for muscle actin (literature), ref Weber et al., 1992",2 µM
same,kon (literature),muscle G-actin [5]; ref Goldschmidt-Clermont et al. (1992),0.75 s⁻¹
same,effect of PIPs on binding,"muscle G-actin [5]; ref Janmey et al., 1992",nor affected by PIPs
same,binding to pyrene vs unlabeled muscle actin,"muscle G-actin [5]; ref Weber et al., 1992",binds equally well to pyrene and unlabeled muscle actin
same,calcium sensitivity of binding,"muscle G-actin [5]; ref Weber et al., 1992",neither calcium sensitive
formylnorleucyileucylphenylalanine [FNLLP],"TB4 staining of actin/TB4 band after stimulation, anti-TB4 immunoblot","[6]; 23°C, n = 6",53 + 9 % of the resting cell level
same,"intensity of G-actin/TB4 band, Coomassie blue",[6]; non-denaturing gel,reduces the intensity of the G-actin/T~4 band
same,F-actin upon stimulation,"F-actin in human PMNs; 10^-7 M FNLLP, 30 s, n = 6",200 + 42 % of the amount in resting cel
same,F-actin of stimulated vs resting cells (Fig. 4 experiment),"F-actin in human PMNs; 10^-7 M FNLLP, 30 s, not shown",approximately twice
same,F-actin increase upon stimulation (Fig. 3a),"F-actin in human PMNs; 10^-7 M FNLLP, 30 s, single representative experiment of Fig. 3",1.5 fold
same,slope of pyrenyl actin polymerization in stimulated cell supernatant,"pyrenyl G-actin; Fig. 4, R2 = 0.777, resting supernatant slope 13.6, 10^-7 M FNLLP, 30 s",6.1 fluorescent U/min
same,"inhibitory activity of boiled supernatants, resting vs stimulated","pyrenyl G-actin; boiled supernatants from resting and FNLLP-stimulated cells, not shown",approximately equal inhibitory activity
same,rate of pointed end polymerization in stimulated supernatant (Fig. 4),"pyrenyl G-actin; single experiment of Fig. 4, 10^-7 M FNLLP, 30 s",45 % of the rate in the resting supernatant
